Measured values from patent publication US9597310B2, “Indanyloxydihydrobenzofuranylacetic acids” (Boehringer Ingelheim International GmbH, priority 2012, dated 2017).

The compounds below were run against human GPR40 receptor (Homo sapiens (Human), UniProt O14842) (assay: IP1 accumulation measurements using the IPOne assay system). Details: 1321N1 cells stably expressing human GPR40 receptor, 1 h stimulation.
human GPR40 receptor, sequence (O14842 whole entry): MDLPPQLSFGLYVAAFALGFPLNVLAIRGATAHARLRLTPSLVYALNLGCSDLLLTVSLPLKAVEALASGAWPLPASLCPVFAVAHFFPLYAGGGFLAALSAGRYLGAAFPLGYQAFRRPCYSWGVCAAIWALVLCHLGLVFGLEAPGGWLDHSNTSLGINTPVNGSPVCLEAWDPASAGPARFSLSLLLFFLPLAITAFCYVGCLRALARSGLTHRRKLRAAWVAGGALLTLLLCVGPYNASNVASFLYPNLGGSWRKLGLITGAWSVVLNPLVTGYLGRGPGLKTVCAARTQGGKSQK
Assay type: cell-based
Experimental: IP1 accumulation measurements using the IPOne assay system—1321N1 cells stably expressing human GPR40 receptor (Euroscreen, Belgium) are seeded 24 h before the assay in white 384-well plates in culture medium containing 10% FCS, 1% Na-Pyruvate and 400 μg/mL G418. IP1 is assayed according to the manufacturer's description (Cisbio Bioassays, France). In brief, the assay is started by substitution of the culture medium by stimulation buffer (Hepes 10 mM, CaCl2 1 mM, MgCl2 0.5 mM, KCl 4.2 mM, NaCl 146 mM, glucose 5.5 mM and LiCl 50 mM, pH 7.4). Cells are stimulated for 1 h at 37° C., 5% CO2 by addition of the compounds that are diluted in stimulation buffer containing LiCl. Assays are stopped by adding HTRF-conjugates (IP1-d2 and Anti-IP1 cryptate Tb) and lysis buffer, provided by the manufacturer. After an incubation time of 1 h at room temperature plates are measured using an EnVision™, Perkin Elmer. The obtained fluorescence ratios at 665/615 […] are then used to calculate the pEC50 values using Assay Explorer 3.3 Software (Accelrys, Inc.) by interpolation using an IP1 reference curve and subsequent sigmoidal curve fitting allowing for a variable hill slope.
Work on `CC(C)(O)CCn1ncc2cc(Oc3ccc(F)c4c3CC[C@H]4Oc3ccc4c(c3)OC[C@H]4CC(=O)O)ccc21` [Example 30, ((S)-6-{(R)-7-Fluoro-4-[1-(3-hydroxy-3-methylbutyl)-1H-indazol-5-yloxy]-indan-1-yloxy}-2,3-dihydrobenzofuran-3-yl)-acetic acid] yielded an EC50 of 13 nM.
`CC(C)(O)Cn1cc(-c2cc(F)c(Oc3ccc(F)c4c3CC[C@H]4Oc3ccc4c(c3)OC[C@H]4CC(=O)O)c(F)c2)cn1` [Example 31, [(S)-6-((R)-4-{2,6-Difluoro-4-[1-(2-hydroxy-2-methylpropyl)-1H-pyrazol-4-yl]phenoxy}-7-fluoro-indan-1-yloxy)-2,3-dihydrobenzofuran-3-yl]-acetic acid] showed an EC50 of 58 nM.
With `Cc1nc(-c2ccc(Oc3ccc(F)c4c3CC[C@H]4Oc3ccc4c(c3)OC[C@H]4CC(=O)O)cc2)cs1` [Example 32, ((S)-6-{(R)-7-Fluoro-4-[4-(2-methylthiazol-4-yl)phenoxy]-indan-1-yloxy}-2,3-dihydrobenzofuran-3-yl)-acetic acid] the EC50 was 13 nM.
For `CC(C)(O)CCOc1cc(F)c(Oc2ccc(F)c3c2CC[C@H]3Oc2ccc3c(c2)OC[C@H]3CC(=O)O)cc1F` [Example 34, ((S)-6-{(R)-4-[2,5-Difluoro-4-(3-hydroxy-3-methylbutoxy)phenoxy]-7-fluoro-indan-1-yloxy}-2,3-dihydrobenzofuran-3-yl)-acetic acid], the EC50 was 6 nM.
Compound `O=C(O)C[C@@H]1COc2cc(O[C@@H]3CCc4c(Oc5ccc(CC6CCOCC6)cc5)ccc(F)c43)ccc21` [Example 35, [(S)-6-((R)-7-Fluoro-4-{4-[(tetrahydro-2H-pyran-4-yl)methyl]phenoxy}-indan-1-yloxy)-2,3-dihydrobenzofuran-3-yl]-acetic acid] has an EC50 of 5 nM.
`CC(C)(O)CCn1ncc2ccc(Oc3ccc(F)c4c3CC[C@H]4Oc3ccc4c(c3)OC[C@H]4CC(=O)O)cc21` [Example 36, ((S)-6-{(R)-7-Fluoro-4-[1-(3-hydroxy-3-methylbutyl)-1H-indazol-6-yloxy]-indan-1-yloxy}-2,3-dihydrobenzofuran-3-yl)-acetic acid] showed an EC50 of 8 nM.
For `O=C(O)C[C@@H]1COc2cc(O[C@@H]3CCc4c(Oc5ccc(OCC6(O)CCOCC6)c(F)c5)ccc(F)c43)ccc21` [Example 37, [(S)-6-((R)-7-Fluoro-4-{3-fluoro-4-[(4-hydroxytetrahydro-2H-pyran-4-yl)-methoxy]phenoxy}-indan-1-yloxy)-2,3-dihydrobenzofuran-3-yl]-acetic acid], the EC50 was 8 nM.
`Cn1ccnc1-c1ccc(Oc2ccc(F)c3c2CC[C@H]3Oc2ccc3c(c2)OC[C@H]3CC(=O)O)cc1` [Example 38, ((S)-6-{(R)-7-Fluoro-4-[4-(1-methyl-1H-imidazol-2-yl)phenoxy]-indan-1-yloxy}-2,3-dihydrobenzofuran-3-yl)-acetic acid] was tested, and the EC50 was 41 nM.
For `CS(=O)(=O)CCCOc1cc(F)c(Oc2ccc(F)c3c2CC[C@H]3Oc2ccc3c(c2)OC[C@H]3CC(=O)O)cc1F` [Example 39, [(S)-6-((R)-4-{2,5-Difluoro-4-[3-(methylsulfonyl)propoxy]phenoxy}-7-fluoro-indan-1-yloxy)-2,3-dihydrobenzofuran-3-yl]-acetic acid], the EC50 was 23 nM.
`Cc1cc(OCCC(C)(C)O)cc(C)c1Oc1ccc(F)c2c1CC[C@H]2Oc1ccc2c(c1)OC[C@H]2CC(=O)O` [Example 40, ((S)-6-{(R)-7-Fluoro-4-[4-(3-hydroxy-3-methylbutoxy)-2,6-dimethylphenoxy]-indan-1-yloxy}-2,3-dihydrobenzofuran-3-yl)-acetic acid] showed an EC50 of 733 nM.
`CC(C)(O)CCCc1ccc(C#N)c(Oc2ccc(F)c3c2CC[C@H]3Oc2ccc3c(c2)OC[C@H]3CC(=O)O)c1` [Example 41, ((S)-6-{(R)-4-[2-Cyano-5-(4-hydroxy-4-methylpentyl)phenoxy]-7-fluoro-indan-1-yloxy}-2,3-dihydrobenzofuran-3-yl)-acetic acid] gave an EC50 of 85 nM.
`CC(C)(O)CCOc1ccc(C#N)c(Oc2ccc(F)c3c2CC[C@H]3Oc2ccc3c(c2)OC[C@H]3CC(=O)O)c1` [Example 42, ((S)-6-{(R)-4-[2-Cyano-5-(3-hydroxy-3-methylbutoxy)-phenoxy]-7-fluoro-indan-1-yloxy}-2,3-dihydrobenzofuran-3-yl)-acetic acid] gave an EC50 of 120 nM.
In the case of `N#Cc1cc(Oc2ccc(F)c3c2CC[C@H]3Oc2ccc3c(c2)OC[C@H]3CC(=O)O)ccc1O[C@@H]1CCOC1` [Example 43, ((S)-6-{(R)-4-[3-Cyano-4-((R)-tetrahydrofuran-3-yloxy)phenoxy]-7-fluoro-indan-1-yloxy}-2,3-dihydrobenzofuran-3-yl)-acetic acid], the EC50 is reported as 18 nM.
For `CC(C)(O)CCOc1ccc(Oc2ccc(F)c3c2CC[C@H]3Oc2ccc3c(c2)OC[C@H]3CC(=O)O)cc1C#N` [Example 44, ((S)-6-{(R)-4-[3-Cyano-4-(3-hydroxy-3-methylbutoxy)phenoxy]-7-fluoro-indan-1-yloxy}-2,3-dihydrobenzofuran-3-yl)-acetic acid], the EC50 was 7 nM.
`CC(C)(O)CCOc1ccc(F)c(Oc2ccc(F)c3c2CC[C@H]3Oc2ccc3c(c2)OC[C@H]3CC(=O)O)c1` [Example 45, ((S)-6-{(R)-7-Fluoro-4-[2-fluoro-5-(3-hydroxy-3-methylbutoxy)phenoxy]-indan-1-yloxy}-2,3-dihydrobenzofuran-3-yl)-acetic acid] showed an EC50 of 29 nM.
`O=C(O)C[C@@H]1COc2cc(O[C@@H]3CCc4c(Oc5cc(OC6CCOCC6)ccc5F)ccc(F)c43)ccc21` [Example 46, ((S)-6-{(R)-7-Fluoro-4-[2-fluoro-5-(tetrahydro-2H-pyran-4-yloxy)phenoxy]-indan-1-yloxy}-2,3-dihydrobenzofuran-3-yl)-acetic acid] was tested, and the EC50 was 62 nM.
Compound `CC(C)(O)CCOc1ccc(Oc2ccc(F)c3c2CC[C@H]3Oc2ccc3c(c2)OC[C@H]3CC(=O)O)c(C#N)c1` [Example 47, ((S)-6-{(R)-4-[2-Cyano-4-(3-hydroxy-3-methylbutoxy)phenoxy]-7-fluoro-indan-1-yloxy}-2,3-dihydrobenzofuran-3-yl)-acetic acid] has an EC50 of 8 nM.
Compound `Cn1nccc1-c1ccc(Oc2ccc(F)c3c2CC[C@H]3Oc2ccc3c(c2)OC[C@H]3CC(=O)O)c(C#N)c1` [Example 48, ((S)-6-{(R)-4-[2-Cyano-4-(1-methyl-1H-pyrazol-5-yl)phenoxy]-7-fluoro-indan-1-yloxy)-2,3-dihydrobenzofuran-3-yl}-acetic acid] has an EC50 of 9 nM.
With `Cc1noc(C)c1-c1ccc(Oc2ccc(F)c3c2CC[C@H]3Oc2ccc3c(c2)OC[C@H]3CC(=O)O)c(C#N)c1` [Example 49, ((S)-6-{(R)-4-[2-Cyano-4-(3,5-dimethylisoxazol-4-yl)phenoxy]-7-fluoro-indan-1-yloxy}-2,3-dihydrobenzofuran-3-yl)-acetic acid] the EC50 was 17 nM.
With `O=C(O)C[C@@H]1COc2cc(O[C@@H]3CCc4c(Oc5ccc(OC6CCOCC6)cc5F)ccc(F)c43)ccc21` [Example 50, ((S)-6-{(R)-7-Fluoro-4-[2-fluoro-4-(tetrahydro-2H-pyran-4-yloxy)phenoxy]-indan-1-yloxy}-2,3-dihydrobenzofuran-3-yl)-acetic acid] the EC50 was 4 nM.
In the case of `N#Cc1ccc(Oc2ccc(F)c3c2CC[C@H]3Oc2ccc3c(c2)OC[C@H]3CC(=O)O)cc1OC1CCOCC1` [Example 51, ((S)-6-{(R)-4-[4-Cyano-3-(tetrahydro-2H-pyran-4-yloxy)phenoxy]-7-fluoro-indan-1-yloxy}-2,3-dihydrobenzofuran-3-yl)-acetic acid], the EC50 is reported as 29 nM.
